Consider 28 compounds from ChEMBL document CHEMBL4130453, “Discovery of an Isothiazole-Based Phenylpropanoic Acid GPR120 Agonist as a Development Candidate for Type 2 Diabetes” (ACS Med Chem Lett, 2017).

The target in data set [1] is T1, Free fatty acid receptor 4 (Homo sapiens, UniProt Q5NUL3).
T1 sequence (Q5NUL3 whole entry): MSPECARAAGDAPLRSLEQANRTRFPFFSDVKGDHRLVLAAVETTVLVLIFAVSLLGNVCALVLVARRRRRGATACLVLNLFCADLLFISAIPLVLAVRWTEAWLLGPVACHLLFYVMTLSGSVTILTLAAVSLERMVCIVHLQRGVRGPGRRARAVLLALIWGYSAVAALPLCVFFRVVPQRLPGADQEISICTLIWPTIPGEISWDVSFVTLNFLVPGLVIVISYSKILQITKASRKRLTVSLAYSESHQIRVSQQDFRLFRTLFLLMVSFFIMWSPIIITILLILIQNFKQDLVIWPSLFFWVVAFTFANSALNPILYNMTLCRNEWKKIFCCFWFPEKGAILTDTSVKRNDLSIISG
In words: Agonist activity at PK-tagged human GPR120 long isoform expressed in CHOK1 cells co-expressing EA-tagged beta-arrestin assessed as beta-gal enzyme complex formation after 90 mins by enzyme fragment complementation assay. The data set is classed as cell-based.

In data set [2] the target is Free fatty acid receptor 4 (Homo sapiens, UniProt Q5NUL3). Description: Agonist activity at human GPR120 short splice variant expressed in HEK293 cells assessed as increase in intracellular calcium flux incubated for 30 mins measured for 300 secs at 1 sec interval by Fluo-4 NW dye based FLIPR assay. The data set is classed as functional, cell-based.
Data set [3] in a line: Metabolic stability in human liver microsomes assessed as parent compound remaining measured at 10 mins. The data set is classed as ADME, microsome. The note with it: read-out: Stability.
Data set [4] is described as follows: Metabolic stability in rat liver microsomes assessed as parent compound remaining measured at 10 mins. As to conditions: for remaining at 10 min: liver microsomes, read-out: Stability. The data set is classed as ADME, microsome.
Data set [5] in a line: Metabolic stability in mouse liver microsomes assessed as parent compound remaining measured at 10 mins. The data set is classed as ADME, microsome. As to conditions: for remaining at 10 min: liver microsomes, read-out: Stability. Background: Liver microsomes are vesicles of endoplasmic reticulum, rich in cytochrome P450 enzymes.
Data set [6] deals with Free fatty acid receptor 1 (Homo sapiens, UniProt O14842). Description: Agonist activity at human GPR40 by calcium flux assay. The data set is classed as functional. For orientation: A change in cytosolic calcium serves as a functional read-out for many receptors and channels.
Data set [7] has as its target T2, Free fatty acid receptor 4 (Mus musculus, UniProt Q7TMA4).
T2 sequence (Q7TMA4 whole entry): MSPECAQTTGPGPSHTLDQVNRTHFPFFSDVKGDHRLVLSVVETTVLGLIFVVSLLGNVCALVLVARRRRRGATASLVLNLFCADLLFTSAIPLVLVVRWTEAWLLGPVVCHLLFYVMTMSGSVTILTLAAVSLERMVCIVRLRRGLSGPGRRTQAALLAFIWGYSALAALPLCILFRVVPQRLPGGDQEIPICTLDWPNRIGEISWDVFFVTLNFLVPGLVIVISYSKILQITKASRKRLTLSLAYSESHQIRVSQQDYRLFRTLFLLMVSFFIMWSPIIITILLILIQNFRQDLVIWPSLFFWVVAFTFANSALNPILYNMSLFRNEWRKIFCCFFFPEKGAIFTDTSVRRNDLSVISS
Description: Agonist activity at mouse GPR120 by calcium flux assay. In kind it is functional.

The subject of another data set is Mus musculus. In words: Antidiabetic activity in diet-induced obese C57BL/6 mouse assessed as reduction in plasma glucose delta AUC level at 1 mg/kg, po administered 30 mins prior to glucose challenge measured 90 mins post glucose challenge by OGTT relative to control. The data set is classed as functional. Further details: scale not given: the % may be the effect or the level left.

Sequence of Free fatty acid receptor 1 (O14842 whole entry): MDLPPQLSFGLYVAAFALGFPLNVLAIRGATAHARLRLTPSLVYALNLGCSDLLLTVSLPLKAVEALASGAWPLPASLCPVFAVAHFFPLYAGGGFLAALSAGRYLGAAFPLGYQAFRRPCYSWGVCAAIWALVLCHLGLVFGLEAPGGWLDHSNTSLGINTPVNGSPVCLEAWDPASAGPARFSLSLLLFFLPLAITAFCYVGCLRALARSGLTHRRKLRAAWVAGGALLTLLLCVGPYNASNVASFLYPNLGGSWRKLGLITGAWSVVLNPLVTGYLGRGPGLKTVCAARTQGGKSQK

For orientation: EC50 means the midpoint of the concentration-response curve. Take `CCc1ccc(-c2nsc(C(F)(F)F)c2COc2ccc(CCC(=O)O)c(C)c2C)cc1`: the EC50 stood at 210 nM in data set [1] and 120 nM in data set [2].
As to `O=C(O)CCc1cc(F)c(OCc2c(-c3ccc(Cl)cc3)nsc2C(F)(F)F)c(F)c1F`, the half-maximal effective concentration (EC50) in data set [2] was found to be 104 nM.
For `Cc1cc(OCc2c(-c3ccc(Cl)cc3)nsc2C(F)(F)F)c(F)cc1CCC(=O)O`, the EC50 in data set [2] is 121 nM.
As for `O=C(O)CCc1cc(F)c(OCc2c(-c3ccc(Cl)cc3)nsc2C(F)(F)F)c(F)c1`, the concentration giving a half-maximal response (EC50) in data set [2] came out at 51 nM.
Consider `CCc1ccc(-c2nsc(C(F)(F)F)c2COc2c(F)cc(CCC(=O)O)cc2F)cc1`, for which, in data set [2], the half-maximal effective concentration (EC50) came out at 34 nM.
On the same count and under the same terms, then `Cc1c(CCC(=O)O)cc(F)c(OCc2c(-c3ccc(Cl)cc3)nsc2C(F)(F)F)c1F`, with 99 nM; and `O=C(O)CCc1cc(F)c(OCc2c(-c3ccccc3)nsc2C(F)(F)F)c(F)c1`, with 160 nM; and `COc1ccc(-c2nsc(C(F)(F)F)c2COc2c(F)cc(CCC(=O)O)cc2F)cc1`, with 75 nM.
Take `O=C(O)CCc1ccc(OCc2c(-c3ccc(Cl)cc3)nsc2C(F)(F)F)c(F)c1F`: the EC50 in data set [2] was determined as 86 nM.
As for `O=C(O)CCc1cc(F)c(OCc2c(-c3ccc(C(F)(F)F)cc3)nsc2C(F)(F)F)c(F)c1`, in data set [2], the EC50 came to 108 nM.
On to `CCc1ccc(-c2sncc2COc2ccc(CCC(=O)O)c(C)c2C)cc1`, for which, in data set [2], the concentration for a half-maximal effect (EC50) turned out to be 191 nM.
In the case of `Cc1snc(-c2ccc(Cl)cc2)c1COc1ccc(CCC(=O)O)c(C)c1C`, the remaining at 10 min in data set [3] is 74%; in data set [4], 57%; in data set [5], 35%. Besides, the EC50 in data set [1] amounted to 128 nM; in data set [2], 106 nM.
On to `Cc1c(CCC(=O)O)ccc(OCc2csnc2-c2ccc(Cl)cc2)c1C`, for which the remaining at 10 min in data set [3] came to 86%; in data set [4] it was 71%; in data set [5] it was 73%. Moreover, the concentration giving a half-maximal response (EC50) in data set [2] turned out to be 215 nM.
In the case of `N#Cc1ccc(-c2nsc(C(F)(F)F)c2COc2c(F)cc(CCC(=O)O)cc2F)cc1`, in data set [2], the 50% effective concentration (EC50) stood at 672 nM.
Turning to `Cc1c(CCC(=O)O)ccc(OCc2c(-c3ccc(Cl)cc3)nsc2C(F)(F)F)c1C`, the remaining at 10 min in data set [3] turned out to be 104%. Also, the Stability in data set [4] (microsomes, 10 min) was 133%; in data set [5] (microsomes, 10 min), 127%. Further, the half-maximal effective concentration (EC50) in data set [2] stood at 155 nM.
Consider `CCc1cc(CCC(=O)O)ccc1OCc1c(-c2ccc(Cl)cc2)nsc1C(F)(F)F`, for which the EC50 in data set [2] stood at 202 nM.
In the case of `CCc1ccc(-c2nsc(C(C)C)c2COc2ccc(CCC(=O)O)c(C)c2C)cc1`, the EC50 in data set [2] came to 1640 nM.
`O=C(O)CCc1c(F)c(F)c(OCc2c(-c3ccc(Cl)cc3)nsc2C(F)(F)F)c(F)c1F`: the EC50 in data set [2] came to 173 nM.
As for `Cc1c(CCC(=O)O)ccc(OCc2c(C(F)(F)F)nsc2-c2ccc(Cl)cc2)c1C`, the half-maximal effective concentration (EC50) worked out at 105 nM in data set [1] and 94 nM in data set [2].
On to `O=C(O)CCc1ccc(OCc2c(-c3ccc(Cl)cc3)nsc2C(F)(F)F)cc1C(F)(F)F`, for which, in data set [2], the 50% effective concentration (EC50) stood at 236 nM.
For `O=C(O)CCc1cc(F)c(OCc2c(-c3ccc(Cl)c(F)c3)nsc2C(F)(F)F)c(F)c1`, the results for the EC50 in data set [6], in data set [7] and in data set [2] were 3000 nM, 102 nM and 25 nM, respectively. For the same compound, the remaining at 10 min in data set [3], in data set [4] and in data set [5] was 87 to 100% in each case.
With `N#C[C@@H]1C[C@@H]2C[C@@H]2N1C(=O)[C@@H](N)C12CC3CC(CC(O)(C3)C1)C2` [SAXAGLIPTIN ANHYDROUS], in the data set on Mus musculus, the Activity was 87%.
`CCc1ccc(-c2nsc(OC)c2COc2ccc(CCC(=O)O)c(C)c2C)cc1`: the EC50 in data set [2] was 920 nM.
Consider `CCc1ccc(-c2nsc(C(F)(F)C(F)(F)F)c2COc2ccc(CCC(=O)O)c(C)c2C)cc1`, for which, in data set [2], the half-maximal effective concentration (EC50) is 332 nM.
Turning to `O=C(O)CCc1cc(F)c(OCc2c(-c3ccc(OC(F)(F)F)cc3)nsc2C(F)(F)F)c(F)c1`, the figures for the concentration for a half-maximal effect (EC50) in data set [1] and in data set [2] were 99 nM and 314 nM, respectively.
`O=C(O)CCc1ccc(OCc2c(-c3ccc(Cl)cc3)nsc2C(F)(F)F)c(Br)c1`: in data set [2], the EC50 worked out at 31 nM.
As to `CCc1ccc(-c2nsc(CC)c2COc2ccc(CCC(=O)O)c(C)c2C)cc1`, the EC50 in data set [2] came out at 680 nM.
On to `CCc1ccc(-c2snc(Cl)c2COc2ccc(CCC(=O)O)c(C)c2C)cc1`, for which the remaining at 10 min in data set [3] amounted to 76%; in data set [5] it was 102%. Further, the EC50 in data set [2] turned out to be 56 nM.
